The results in this text go back to patent US8129398B2 (priority 2008, dated 2012).

pIC50: −log10 of the molar value.

This assay has as its target T1, HIV-integrase (Human immunodeficiency virus type 1 group M subtype B, UniProt P12497).
T1 construct: Recombinant integrase (0.26 ng) was incubated with the beads
Kind of assay: HIV-Integrase Inhibition Activity (SPA bead integration assay with P33 labeled target DNA). Format: biochemical. The following applies: recombinant integrase, class symbols; read-out: in vitro activity. Put shortly: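 Biotinylated substrate DNA on streptavidin SPA beads loaded with recombinant integrase (90 min, 37° C), washed, then inhibitor plus 0.1 fmol P33-labeled target DNA added. Reaction stopped with 10 mM EDTA; integration measured as CPM by scintillation, giving IC50 ranks.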
Take `Cc1cc(CNC(=O)c2nc3n(c(=O)c2O)CC2CCC3(NC(=O)C(C)(C)n3cc(C(=O)O)nn3)CC2)ccc1F` [Example 285, 1H-1,2,3-Triazole-4-carboxylic acid, 1-[2-[[2-[[[(4-fluoro-3-methylphenyl)methyl]amino]carbonyl]-6,7,8,9-tetrahydro-3-hydroxy-4-oxo-7,10-ethanopyrimido[1,2-a]azepin-10(4H)-yl]amino]-1,1-dimethyl-2-oxoethyl]-]: the pIC50 is > 8.00.

Consider `CN(C)C(=O)C(=O)NC12CCC(CC1)Cn1c2nc(C(=O)NCc2c[nH]c3ccccc23)c(O)c1=O` [Example 235, Ethanediamide, N,N-dimethyl-N′-[6,7,8,9-tetrahydro-3-hydroxy-2-[[(1H-indol-3-ylmethyl)amino]carbonyl]-4-oxo-7,10-ethanopyrimido[1,2-a]azepin-10(4H)-yl]-], for which the pIC50 is > 8.00.

Regarding `Cc1cc(CNC(=O)c2nc3n(c(=O)c2O)CC2CCC3(NC(=O)N(C)c3ccccn3)CC2)ccc1F` [Example 329, 7,10-Ethanopyrimido[1,2-a]azepine-2-carboxamide, N-[(4-fluoro-3-methylphenyl)methyl]-4,6,7,8,9,10-hexahydro-3-hydroxy-10-[[(methyl-2-pyridinylamino)carbonyl]amino]-4-oxo-], the pIC50 is > 8.00.

Turning to `O=C(NCc1ccc(F)cc1)c1nc2n(c(=O)c1O)CC1CCC2(NC(=O)C2CCCN2C(=O)C2CC2)CC1` (centres unmarked) [Example 407], the pIC50 was > 8.00.

Turning to `CNC(=O)C(=O)NC12CCC(CC1)Cn1c2nc(C(=O)NCc2ccc(F)cc2)c(O)c1=O` [Example 61, N-(2-((4-Fluorobenzyl)carbamoyl)-3-hydroxy-4-oxo-6,7,8,9-tetrahydro-7,10-ethanopyrimido[1,2-a]azepin-10(4H)-yl)-N′-methylethanediamide], the pIC50 was > 8.00.

With `CC(C)CN(C)C(=O)C(=O)NC12CCC(CC1)Cn1c2nc(C(=O)NCc2ccc(F)cc2)c(O)c1=O` [Example 99, N′-(2-((4-Fluorobenzyl)carbamoyl)-3-hydroxy-4-oxo-6,7,8,9-tetrahydro-7,10-ethanopyrimido[1,2-a]azepin-10(4H)-yl)-N-methyl-N-(2-methylpropyl)ethanediamide], the pIC50 is > 8.00.

As for `CN(C)C(=O)C(=O)NC12CCC(CC1)Cn1c2nc(C(=O)NCc2ccc(F)cc2-c2nncn2C)c(O)c1=O` [Example 109, N′-(2-((4-Fluoro-2-(4-methyl-4H-1,2,4-triazol-3-yl)benzyl)carbamoyl)-3-hydroxy-4-oxo-6,7,8,9-tetrahydro-7,10-ethanopyrimido[1,2-a]azepin-10(4H)-yl)-N,N-dimethylethanediamide], the pIC50 is 7.00 to 8.00.

For `CN(C)C(=O)C(=O)NC12CCC(CC1)Cn1c2nc(C(=O)NCc2ccc(F)c(C3CC3)c2)c(O)c1=O` [Example 128, N′-(2-((3-Cyclopropyl-4-fluorobenzyl)carbamoyl)-3-hydroxy-4-oxo-6,7,8,9-tetrahydro-7,10-ethanopyrimido[1,2-a]azepin-10(4H)-yl)-N,N-dimethylethanediamide], the pIC50 is > 8.00.

In the case of `Cc1ccc(C(=O)NC23CCC(CC2)Cn2c3nc(C(=O)NCc3ccc(F)cc3)c(O)c2=O)o1` [Example 237, 7,10-Ethanopyrimido[1,2-a]azepine-2-carboxamide, N-[(4-fluorophenyl)methyl]-4,6,7,8,9,10-hexahydro-3-hydroxy-10-[[(5-methyl-2-furanyl)carbonyl]amino]-4-oxo-], the pIC50 was > 8.00.

For `NC12CCC(Cn3c1nc(C(=O)NCc1ccc(F)cc1)c(O)c3=O)C2` (centres unmarked) [Example 190, 7,10-Methanopyrimido[1,2-a]azepine-2-carboxamide, 10-amino-N-[(4-fluorophenyl)methyl]-4,6,7,8,9,10-hexahydro-3-hydroxy-4-oxo-], the pIC50 is 7.00 to 8.00.

`CC(=O)N[C@H]1CCN(C(=O)C(=O)NC23CCC(CC2)Cn2c3nc(C(=O)NCc3ccc(F)cc3)c(O)c2=O)C1` [Example 68, 10-((((3S)-3-(Acetylamino)-1-pyrrolidinyl) (oxo)acetyl)amino)-N-(4-fluorobenzyl)-3-hydroxy-4-oxo-4,6,7,8,9,10-hexahydro-7,10-ethanopyrimido[1,2-a]azepine-2-carboxamide]: the pIC50 was > 8.00.

Turning to `CN(C)C(=O)C(=O)NC12CCC(CC1)Cn1c2nc(C(=O)NCCC2CCCN2C)c(O)c1=O` (centres unmarked) [Example 336], the pIC50 was < 7.00.

On to `CN(C)C(=O)C(=O)NC12CCC(CCn3c1nc(C(=O)NCc1ccc(F)cc1)c(O)c3=O)C2` (centres unmarked) [Example 199, Ethanediamide, N′-[2-[[[(4-fluorophenyl)methyl]amino]carbonyl]-7,8,9,10-tetrahydro-3-hydroxy-4-oxo-8,11-methano-4H-pyrimido[1,2-a]azocin-11(6H)-yl]-N,N-dimethyl-], for which the pIC50 is > 8.00.

On to `CS(=O)(=O)N1CC[C@H]1C(=O)NC12CCC(CC1)Cn1c2nc(C(=O)NCc2ccc(F)cc2)c(O)c1=O` [Example 268, 7,10-Ethanopyrimido[1,2-a]azepine-2-carboxamide, N-[(4-fluorophenyl)methyl]-4,6,7,8,9,10-hexahydro-3-hydroxy-10-[[[(2S)-1-(methylsulfonyl)-2-azetidinyl]carbonyl]amino]-4-oxo-], for which the pIC50 was > 8.00.

For the compound `CN(C)C(=O)C(=O)NC12CCC(CC1)Cn1c2nc(C(=O)NCc2ccccc2)c(O)c1=O` [Example 129, N′-(2-(Benzylcarbamoyl)-3-hydroxy-4-oxo-6,7,8,9-tetrahydro-7,10-ethanopyrimido[1,2-a]azepin-10(4H)-yl)-N,N-dimethylethanediamide], the pIC50 was > 8.00.

Consider `NC12CCC(CC1)n1c2nc(C(=O)NCc2ccc(F)cc2)c(O)c1=O` [Example 11, 6,9-Ethano-4H-pyrido[1,2-a]pyrimidine-2-carboxamide, 9-amino-N-[(4-fluorophenyl)methyl]-6,7,8,9-tetrahydro-3-hydroxy-4-oxo-], for which the pIC50 is 7.00 to 8.00.

Take `COCCN(C)C(=O)C(=O)N(C)C12CCC(CC1)Cn1c2nc(C(=O)NCc2ccc(F)c(C)c2)c(O)c1=O` [Example 168, N-(2-((4-Fluoro-3-methylbenzyl)carbamoyl)-3-hydroxy-4-oxo-6,7,8,9-tetrahydro-7,10-ethanopyrimido[1,2-a]azepin-10(4H)-yl)-N′-(2-methoxyethyl)-N,N′-dimethylethanediamide]: the pIC50 is > 8.00.

Take `Cc1cc(CNC(=O)c2nc3n(c(=O)c2O)CC2CCC3(N(C)C(=O)C(=O)N(C)CC3CCCO3)CC2)ccc1F` (centres unmarked) [Example 166, N-(2-((4-Fluoro-3-methylbenzyl)carbamoyl)-3-hydroxy-4-oxo-6,7,8,9-tetrahydro-7,10-ethanopyrimido[1,2-a]azepin-10(4H)-yl)-N,N′-dimethyl-N′-(tetrahydro-2-furanylmethyl)ethanediamide]: the pIC50 was > 8.00.

Regarding `COc1ccc(CNC(=O)c2nc3n(c(=O)c2O)CC2CCC3(NC(=O)C(=O)N(C)C)CC2)cc1` [Example 375], the pIC50 is > 8.00.

On to `CC(=O)NC12CCC(Cn3c1nc(C(=O)NCc1ccc(F)cc1)c(O)c3=O)OC2` (centres unmarked) [Example 221, 10-(Acetylamino)-N-(4-fluorobenzyl)-3-hydroxy-4-oxo-4,6,7,8,9,10-hexahydro-7,10-(epoxymethano)pyrimido[1,2-a]azepine-2-carboxamide], for which the pIC50 is > 8.00.

For the compound `CN(C)C(=O)C(=O)NC12CCC(CC1)Cn1c2nc(C(=O)NCCNc2ccccc2)c(O)c1=O` [Example 342], the pIC50 is 7.00 to 8.00.

Take `CO[C@H]1C[C@@H](C(=O)NC23CCC(CC2)Cn2c3nc(C(=O)NCc3ccc(F)c(C)c3)c(O)c2=O)N(C(=O)c2ccno2)C1` [Example 280, 7,10-Ethanopyrimido[1,2-a]azepine-2-carboxamide, N-[(4-fluoro-3-methylphenyl)methyl]-4,6,7,8,9,10-hexahydro-3-hydroxy-10-[[[(2S,4S)-1-(5-isoxazolylcarbonyl)-4-methoxy-2-pyrrolidinyl]carbonyl]amino]-4-oxo-]: the pIC50 was > 8.00.

As to `Cc1oncc1S(=O)(=O)NC12CCC(CC1)Cn1c2nc(C(=O)NCc2ccc(F)cc2)c(O)c1=O` [Example 393], the pIC50 was > 8.00.

Take `CNC(=O)N1CCCC1C(=O)NC12CCC(CC1)Cn1c2nc(C(=O)NCc2ccc(F)cc2)c(O)c1=O` (centres unmarked) [Example 401]: the pIC50 was > 8.00.

As to `Cc1cc(C(=O)NC23CCC(CC2)Cn2c3nc(C(=O)NCc3ccc(F)cc3-n3ncnc3C)c(O)c2=O)no1` [Example 37, N-(4-Fluoro-2-(5-methyl-1H-1,2,4-triazol-1-yl)benzyl)-3-hydroxy-10-(((5-methyl-3-isoxazolyl)carbonyl)amino)-4-oxo-4,6,7,8,9,10-hexahydro-7,10-ethanopyrimido[1,2-a]azepine-2-carboxamide], the pIC50 is 7.00 to 8.00.

`O=C(NCc1ccc(F)cc1)c1nc2n(c(=O)c1O)CC1CCC2(NS(=O)(=O)c2ccccc2)CC1` [Example 395]: the pIC50 was > 8.00.

Regarding `CN(C)C(=O)C(=O)N(C)C12CCC(CC1)Cn1c2nc(C(=O)NCc2ccc(F)c(F)c2)c(O)c1=O` [Example 159, N-(2-((3,4-Difluorobenzyl)carbamoyl)-3-hydroxy-4-oxo-6,7,8,9-tetrahydro-7,10-ethanopyrimido[1,2-a]azepin-10(4H)-yl)-N,N′,N′-trimethylethanediamide], the pIC50 is > 8.00.

On to `CNC(=O)C(=O)NC12CCC(Cn3c1nc(C(=O)NCc1ccc(F)cc1)c(O)c3=O)C2` (centres unmarked) [Example 193, Ethanediamide, N-[2-[[[(4-fluorophenyl)methyl]amino]carbonyl]-6,7,8,9-tetrahydro-3-hydroxy-4-oxo-7,10-methanopyrimido[1,2-a]azepin-10(4H)-yl]-N′-methyl-], for which the pIC50 is > 8.00.

`CN(C)C(=O)C(=O)NC12CCC(Cn3c1nc(C(=O)NCc1ccc(F)cc1)c(O)c3=O)C2` (centres unmarked) [Example 188, Ethanediamide, N′-[2-[[[(4-fluorophenyl)methyl]amino]carbonyl]-6,7,8,9-tetrahydro-3-hydroxy-4-oxo-7,11-methanopyrimido[1,2-a]azepin-10(4H)-yl]-N,N-dimethyl-]: the pIC50 is > 8.00.
